{"source": "patent US20240358682A1", "about": "“USE OF ALPHA-2-ADRENERGIC RECEPTOR AGONISTS FOR IMPROVING VISION” (Allergan, Inc., priority 2018, published 2024)", "key": {"Dutch Belted rabbits [1]": {"system": "Dutch Belted rabbits", "assay": "In vivo rabbit miosis model, low-light (scotopic) conditions", "settings": "for animals with greater than 2.5 mm reduction in pupil size from baseline: 0.1% w:v, scotopic (<10 lux), n=6; for miotic efficacy compared with brimonidine: single topical dose, low light, FIG. 1 to FIG. 4", "description": "(§1) Female Dutch Belted rabbits (Covance, Princeton, New Jersey) weighing between 2-4 kg were used for these studies. […] For topical dosing, eye drops (volume=35 μl) were instilled into the lower conjunctival sac of the test eye.\nPupil diameter was measured in both the treated and untreated eye with an Optistick to the nearest 0.5 mm. […] All studies were done under low-light conditions in which a red photography light is used providing 2-10 Lux of light."}, "Dutch Belted rabbits [2]": {"system": "Dutch Belted rabbits", "assay": "In vivo rabbit miosis model, room light conditions", "settings": "room lighting conditions, FIG. 5", "description": "Percentage amounts are % w:v.\nas §1\nPupil diameter was measured in both the treated and untreated eye with an Optistick to the nearest 0.5 mm. In all studies, baseline pupil diameter measurements were taken prior to drug administration and then at 0.5, 1, 2, 3 and 4 hours post dose. […]"}, "[3]": {"description": "Aliquots of the PBS only curve were quenched at time zero to be used as stability controls and calibration standards. Following centrifugation, samples were analyzed by LC-MS/MS bioanalysis. Back-calculated concentrations using the assay PBS curve were used for binding and stability calculations."}, "patients": {"system": "patients", "assay": "Patient case examples (presbyopia, glare/starbursts/halos, night vision, night myopia)", "type": "in vivo, human", "text": "A person complains of an inability to focus on text when reading up close, which is interfering with their ability of read documents at work, as well as reading books and news articles. The problem seems worse under lower lighting conditions, such as the dim lighting in a restaurant. The visual degradation had been occurring over time, but in recent months, the person's inability to focus on text when read close up had been more pronounced such as to interfere with their quality of life. The person is seen by an ophthalmologist who performs a visual acuity test in which they are asked to read lines of letters on an eye chart without the assistance of glasses or contacts (neither of which they wear anyway). They find that they are only able to read the first four lines on the chart, when a person with normal vision should be able to read six. Based on the person's age and results of the test, they are diagnosed with presbyopia. The person is reluctant to have to obtain reading glasses or wear contact lenses and asks if there are any other medical treatments. They are instructed to administer to their eyes a composition comprising a compound of Formula I one or two times a day. Starting with the first couple of doses, the patient reports improved vision when reading text up close. On a follow-up visit to the ophthalmologist, they are again asked to read lines of letters on an eye chart (they are still administering the composition with the compound of Formula I to their eyes), and this time they are able to read the first six lines, a two line improvement over their previous results prior to administering the compound of Formula I to their eyes.\nA person has noticed that their near vision has been deteriorating over the last few years such that they often have to hold reading material almost out to arm's length in order to be able to read the print, especially when the ambient light is dim. The person visits their ophthalmologist who performs a basic eye exam and refraction assessment. Based on the examination, the ophthalmologist prescribes a composition comprising brimonidine to constrict the person's pupil to treat the presbyopia, and the person is instructed to administer the composition to their eyes daily as needed.\nA person decides to undergo LASIK surgery. The surgeon who will perform the surgery evaluates the patient and determines that they are a suitable candidate for the surgery, but is told that side effects of the surgery include visual glare, visual starbursts, and visual halos, especially at night. The surgeon performs the surgery without any noticeable issues and the patient is discharged. A day later the patient drives home during the evening for the first time since the surgery and notices what appear to be starbursts of light emanating from the headlights and rear lights of other cars, as well as from street lights, and also glare coming from those light sources that interfere with is vision. The patient also observes diffuse rings around some of the street lights and illuminated street signs. Upon consultation, the surgeon confirms that such visual disturbances are indeed the visual glare, visual starburst, and visual halo side effects often seen after LASIK surgery, and the patient is prescribed a composition comprising the compound of Formula I, which the patient administers to their eyes in accordance with the package instructions.\nA person has noticed that they are having issues seeing the street names on street signs with good contrast when they are driving at night. The person consults with their ophthalmologist who, upon hearing the patient's description and performing a visual acuity test under low light conditions, prescribes a composition comprising the compound of Formula I, which the patient administers to their eyes in accordance with the package instructions. […]"}, "presbyopic patients": {"system": "presbyopic patients", "settings": "different lighting conditions, McDonald II et al.; cited from earlier work"}}}
{"compound": "Cc1c(N=C2NCCN2)ccc2[nH]cnc12", "note": "[Compound 1]", "values": [{"measurement": "animals with greater than 2.5 mm reduction in pupil size from baseline", "setting": "Dutch Belted rabbits [1]; after 6 hours", "value": "more than half"}, {"measurement": "animals with greater than 2.5 mm reduction in pupil size from baseline", "setting": "Dutch Belted rabbits [1]; two hours after dosing", "value": "virtually all"}, {"measurement": "miotic efficacy compared with brimonidine", "setting": "Dutch Belted rabbits [1]", "value": "greater magnitude of pupil size reduction"}, {"measurement": "pupil constriction at 9 hours after dosing", "setting": "Dutch Belted rabbits [1]; topical dose, FIG. 6", "value": "significant pupil constriction"}, {"measurement": "effect on pupil constriction compared to Compound 3", "setting": "Dutch Belted rabbits [1]; topical dose, FIG. 7", "value": "greater effect"}, {"measurement": "miotic action compared with brimonidine (peak pupil constriction and duration of action)", "setting": "Dutch Belted rabbits [2]", "value": "greater miotic action than brimonidine"}, {"measurement": "melanin binding (assessment in words)", "setting": "[3]", "value": "no significant melanin binding"}, {"measurement": "ability to focus on distant objects at night", "setting": "patients; person with night myopia", "value": "as good as their ability to do so during the day"}, {"measurement": "administrations needed per day to treat presbyopia", "setting": "patients; person with presbyopia", "value": "once (or sometimes twice)"}, {"measurement": "improvement in lines read on eye chart", "setting": "patients; person with presbyopia, composition one or two times a day", "value": "two"}, {"measurement": "night vision contrast", "setting": "patients; person, driving at night", "value": "much better contrast"}, {"measurement": "visual glare, starbursts and halos after LASIK", "setting": "patients; person, night driving", "value": "significantly reduced"}]}
{"compound": "CCc1c(N=C2NCCN2)ccc2[nH]cnc12", "note": "[Compound 2, reference compound]", "values": [{"measurement": "miotic efficacy compared with brimonidine", "setting": "Dutch Belted rabbits [1]", "value": "much less than brimonidine"}]}
{"compound": "Brc1c(N=C2NCCN2)ccc2[nH]cnc12", "note": "[Compound 3, reference compound]", "values": [{"measurement": "miotic efficacy compared with brimonidine", "setting": "Dutch Belted rabbits [1]", "value": "much less than brimonidine"}]}
{"compound": "Brc1c(NC2=NCCN2)ccc2nccnc12", "note": "[Compound 4, brimonidine, reference compound]", "values": [{"measurement": "animals with greater than 2.5 mm reduction in pupil size from baseline", "setting": "Dutch Belted rabbits [1]; after 6 hours", "value": "virtually none"}, {"measurement": "animals with greater than 2.5 mm reduction in pupil size from baseline", "setting": "Dutch Belted rabbits [1]; half hour after dosing", "value": "much less than half"}, {"measurement": "melanin binding (assessment in words)", "setting": "[3]", "value": "much more significant binding"}, {"measurement": "administrations needed per day to treat presbyopia", "setting": "patients; person with presbyopia", "value": "three"}, {"measurement": "average pupil size after brimonidine", "setting": "presbyopic patients", "value": 3.4, "unit": "mm"}]}
